Counter-ions that a name gives are not always drawn.
Tests used:
[1] = tested on: NCI-H292 lung cancer cells; assay: FDA drug screening, complete media vs cholesterol-free media without statin (TABLE 1); type: cell-based, human
[2] = tested on: NCI-H292 lung cancer cells; assay: FDA drug screening, complete media vs cholesterol-free media with simvastatin (TABLE 2); type: cell-based, human; conditions: for Cholesterol-free media + simvastatin (0.04 μM) / Complete Media: NCI-H292 cells
[3] = Complete minus Cholesterol-free, >0 enhanced anti-cancer activity, about 0 neutral, <0 antagonist
[4] = NCI-H292 cells, cholesterol-free media without statin
[5] = cholesterol-free media with simvastatin 0.04 μM, cell growth value in FDA drug screen
[6] = complete media, cell growth value in FDA drug screen
[7] = complete media minus cholesterol-free media + simvastatin, >0 enhanced anti-cancer activity, about 0 neutral, <0 antagonist
[8] = Complete minus Cholesterol-free, […]
[9] = FDA drug library screen, cholesterol-free media with simvastatin 0.04 μM
[10] = FDA drug library screen, complete media
[11] = complete media vs cholesterol-free media + simvastatin (0.04 μM), […]
[12] = NCI-H292 cells, cholesterol-free media without statin, FDA drug library screen
[13] = NCI-H292 cells, complete media, FDA drug library screen
[14] = FDA library drug in cholesterol-free media with simvastatin 0.04 μM
[15] = FDA library drug in complete media
[16] = complete media vs cholesterol-free media + simvastatin (0.04 μM), >0 enhanced anti-cancer activity, about 0 neutral, <0 antagonist
[17] = NCI-H292 cells in cholesterol-free media without statin
[18] = NCI-H292 cells in complete media
[19] = Complete minus Cholesterol-free, greater than 0 enhanced anti-cancer activity, about 0 neutral, below 0 antagonists
[20] = complete vs cholesterol-free media, […]
[21] = NCI-H292 cells, FDA drug library screen, cholesterol-free media without statin
[22] = NCI-H292 cells, FDA drug library screen, complete media
[23] = cholesterol-free media with simvastatin 0.04 μM, FDA drug library screen (TABLE 2)
[24] = complete media, FDA drug library screen (TABLE 2)
[25] = complete media minus cholesterol-free media + simvastatin (0.04 μM), […]
[26] = Complete minus Cholesterol-free, greater than 0 enhanced anti-cancer activity, about 0 neutral, below 0 antagonist
[27] = complete media minus cholesterol-free media + simvastatin (0.04 μM), >0 enhanced anti-cancer activity, about 0 neutral, <0 antagonist
[28] = drug in cholesterol-free media with simvastatin 0.04 μM

CN1CCN(C2=Nc3ccccc3Oc3ccc(Cl)cc32)CC1 [Loxapine]
Difference [1, 3]: −0.26
Cholesterol-free [1, 4]: 1.313
Complete ([1]; NCI-H292 cells, complete media): 1.056
Cholesterol-free media + simvastatin (0.04 μM) [2, 5]: 0.8194
Complete Media [2, 6]: 0.9125
Difference [2, 7]: 0.09

CN(C(=O)/C=C/c1ccoc1)[C@@H]1CC[C@@]2(O)[C@H]3Cc4ccc(O)c5c4[C@@]2(CCN3CC2CC2)[C@H]1O5 [Nalfurafine (hydrochloride)]
Difference [1, 8]: −0.29
Cholesterol-free [1, 4]: 1.222
Complete ([1]; NCI-H292 cells, complete media): 0.931
Cholesterol-free media + simvastatin (0.04 μM) [2, 9]: 1.083
Complete Media [2, 10]: 0.926
Difference [2, 11]: −0.16

N=C(N)NC(=O)Cc1c(Cl)cccc1Cl [Guanfacine (hydrochloride)]
Cholesterol-free [1, 12]: 0.9809
Complete [1, 13]: 1.601
Difference ([1]; complete vs cholesterol-free media, >0 enhanced anti-cancer activity, about 0 neutral, <0 antagonist): 0.62
Cholesterol-free media + simvastatin (0.04 μM) [2, 9]: 1.401
Complete Media [2, 10]: 1.965
Difference [2, 7]: 0.56

N[C@H](CO)C(=O)O [(R)-Serine]
Cholesterol-free [1, 4]: 1.718
Complete ([1]; NCI-H292 cells, complete media): 1.345
Difference ([1]; complete vs cholesterol-free media, greater than 0 enhanced anti-cancer activity, about 0 neutral, below 0 antagonists): −0.37
Cholesterol-free media + simvastatin (0.04 μM) [2, 5]: 0.9633
Complete Media [2, 6]: 1.052
Difference [2, 7]: 0.09

CC(C)(C)[C@@H]1NC(=O)O[C@@H]2CCC[C@H]2OC/C=C/C(F)(F)c2nc3ccccc3nc2O[C@@H]2C[C@@H](C(=O)N[C@]3(C(=O)NS(=O)(=O)C4(C)CC4)C[C@H]3C(F)F)N(C2)C1=O [Glecaprevir]
Difference [1, 3]: −0.04
Cholesterol-free [1, 12]: 0.8867
Complete [1, 13]: 0.8478
Cholesterol-free media + simvastatin (0.04 μM) [2, 5]: 1.021
Complete Media [2, 6]: 1.126
Difference [2, 7]: 0.11

NC(=O)CN1CC(O)CC1=O (stereo not drawn) [Oxiracetam]
Difference [1, 3]: −0.22
Cholesterol-free [1, 4]: 1.104
Complete ([1]; NCI-H292 cells, complete media): 0.8826
Cholesterol-free media + simvastatin (0.04 μM) [2, 14]: 1.234
Complete Media [2, 15]: 0.9456
Difference [2, 16]: −0.29

O=C([O-])[C@H](O)[C@@H](O)[C@H](O)[C@H](O)CO.[Na+] [Gluconate (sodium)]
Difference [1, 8]: −0.62
Cholesterol-free [1, 17]: 1.575
Complete [1, 18]: 0.95
Cholesterol-free media + simvastatin (0.04 μM) [2, 14]: 1.406
Complete Media [2, 15]: 0.9873
Difference [2, 11]: −0.42

CCN(CCO)CCCC(C)Nc1ccnc2cc(Cl)ccc12 (stereo not drawn) [Hydroxychloroquine sulfate]
Difference [1, 19]: −0.72
Complete [1, 18]: 0.895
Cholesterol-free media + simvastatin (0.04 μM) [2, 5]: 0.9769
Complete Media [2, 6]: 1.024
Difference [2, 7]: 0.05

COC(=O)c1cc(OC)c2c(c1-c1c(C(=O)OC)cc(OC)c3c1OCO3)OCO2 [Bifendate]
Cholesterol-free [1, 4]: 1.494
Complete ([1]; NCI-H292 cells, complete media): 1.156
Difference [1, 20]: −0.34
Cholesterol-free media + simvastatin (0.04 μM) [2, 9]: 1.269
Difference [2, 11]: −0.10

Cc1coc2c1C(=O)C(=O)c1c-2ccc2c(C)cccc12 [Tanshinone I]
Difference [1, 8]: −0.07
Cholesterol-free [1, 21]: 0.8572
Complete [1, 22]: 0.783
Cholesterol-free media + simvastatin (0.04 μM) [2, 23]: 0.9012
Complete Media [2, 24]: 0.8645
Difference [2, 25]: −0.04

CCN(CC)C(=O)C1(c2ccccc2)CC1CN (stereo not drawn) [Milnacipran (hydrochloride)]
Cholesterol-free [1, 4]: 1.545
Complete ([1]; NCI-H292 cells, complete media): 1.09
Difference [1, 20]: −0.45
Cholesterol-free media + simvastatin (0.04 μM) [2, 23]: 1.626
Complete Media [2, 24]: 1.564
Difference [2, 25]: −0.06

CCCCC(CC)COC(=O)C(C#N)=C(c1ccccc1)c1ccccc1 (stereo not drawn) [Octocrylene]
Difference [1, 19]: −0.58
Cholesterol-free [1, 17]: 1.541
Complete [1, 18]: 0.9621
Cholesterol-free media + simvastatin (0.04 μM) [2, 9]: 1.183
Complete Media [2, 10]: 1.029
Difference [2, 16]: −0.15

CCC(=O)NS(=O)(=O)c1ccc(-c2c(-c3ccccc3)noc2C)cc1 [Parecoxib (Sodium)]
Difference [1, 26]: −0.08
Cholesterol-free [1, 21]: 0.9327
Complete [1, 22]: 0.8551
Cholesterol-free media + simvastatin (0.04 μM) [2, 9]: 2.419
Difference [2, 27]: −1.17

Eprosartan (mesylate)
Difference [1, 19]: −0.55
Cholesterol-free [1, 17]: 1.415
Complete [1, 18]: 0.8697
Cholesterol-free media + simvastatin (0.04 μM) [2, 23]: 0.8775
Complete Media [2, 24]: 0.8724
Difference [2, 27]: −0.01

CCn1nc(C(=O)O)c(=O)c2cc3c(cc21)OCO3 [Cinoxacin]
Difference [1, 3]: −0.05
Cholesterol-free [1, 12]: 0.9965
Complete [1, 13]: 0.951
Cholesterol-free media + simvastatin (0.04 μM) [2, 5]: 0.9547
Complete Media [2, 6]: 0.9782
Difference [2, 7]: 0.02

COc1cc(Nc2c(C#N)cnc3cc(OCCCN4CCN(C)CC4)c(OC)cc23)c(Cl)cc1Cl [Bosutinib]
Difference [1, 3]: 0.05
Cholesterol-free [1, 12]: 0.4091
Complete [1, 13]: 0.4542
Cholesterol-free media + simvastatin (0.04 μM) [2, 5]: 0.2873
Complete Media [2, 6]: 0.3524
Difference [2, 7]: 0.07

Cc1onc(-c2c(F)cccc2Cl)c1C(=O)N[C@@H]1C(=O)N2[C@@H]1SC(C)(C)[C@@H]2C(=O)O [Flucloxacillin sodium]
Difference [1, 3]: −0.29
Cholesterol-free [1, 4]: 1.264
Complete ([1]; NCI-H292 cells, complete media): 0.9693
Cholesterol-free media + simvastatin (0.04 μM) [2, 14]: 1.127
Complete Media [2, 15]: 0.8297
Difference [2, 16]: −0.30

O=C(O)c1ccc(NC(=O)[C@H](Cc2ccc(O)cc2)NC(=O)c2ccccc2)cc1 [Bentiromide]
Difference [1, 3]: −0.23
Cholesterol-free [1, 4]: 1.105
Complete ([1]; NCI-H292 cells, complete media): 0.8729
Cholesterol-free media + simvastatin (0.04 μM) [2, 28]: 0.9161
Complete Media ([2]; drug in complete media): 0.7117
Difference [2, 16]: −0.20

Phillyrin
Difference [1, 8]: −0.77
Cholesterol-free [1, 17]: 1.584
Complete [1, 18]: 0.8182
Cholesterol-free media + simvastatin (0.04 μM) [2, 9]: 1.405
Complete Media [2, 10]: 1.262
Difference [2, 11]: −0.14

CC(C)(CO)[C@H](O)C(=O)NCCCO [D-Panthenol]
Difference [1, 26]: −0.09
Cholesterol-free [1, 21]: 1.002
Complete [1, 22]: 0.9087
Cholesterol-free media + simvastatin (0.04 μM) [2, 28]: 1.067
Complete Media ([2]; drug in complete media): 0.817
Difference [2, 16]: −0.25

Reference: patent US20250144067A1, “PERSONALIZED STARVATION THERAPY FOR CANCER” (Faeth Therapeutics, Inc., priority 2021, published 2025)
